Experimental data published in paper PMC6600665, “Identification and Characterization of Approved Drugs and Drug-Like Compounds as Covalent Escherichia coli ClpP Inhibitors” (International Journal of Molecular Sciences, 2019).
Read-outs that look alike come from different tables or passages of the source.

What was measured:
in vitro = type: cell-based; conditions: human, 48 h incubation, 1:3 dilutions starting from 200 μM
Procedure: (§1) Potential cell toxicity of the tested compounds was evaluated by ATP quantification using the CellTiter-Glo® luminescent cell viability assay (Promega, Madison, WI, USA). […] After incubation, 20 µL of CellTiter-Glo® reagent were added per well and incubated at room temperature in the dark for another 30 min. Luminescence was quantified by an EnVision multi-plate reader (PerkinElmer, Rodgau, Germany).

HTC-116 cells = experiment: in vitro; type: cell-based
Procedure: as §1

A549 cells = experiment: in vitro; type: cell-based
Procedure: as §1

MCF-7 cells = experiment: in vitro; type: cell-based
Procedure: as §1

[1] = tested on: E. coli BW25-113 (wild type); experiment: Growth delay under nitric oxide stress (DPTA NONOate) in M9 medium, wild type; type: cell-based; conditions: WT E. coli, both tested concentrations (50 and 100 μM), M9 minimal medium
Procedure: (§2) Assessment of E. coli growth delay in presence of nitric oxide stress was carried out following our recently published protocol, which is an adaptation of the method reported by Robinson and Brynildsen to a 96-well plate format. Fresh MHB medium was inoculated with isolated colonies of E. coli BW25-113 or E. coli JW0427-1, grown on Luria Agar, and left overnight in a shaking incubator (250 rpm) at 37 °C. On the following day, the overnight culture was used to inoculate fresh M9 medium (supplemented with 10 mM glucose) 1:100, and was grown until OD600 ~0.3. Afterwards, the culture was transferred into 96-well, flat-bottom, sterile clear plates (#167008, Nunc, VWR). Bacterial OD600 was adjusted to 0.1 with M9 medium (supplemented with 10 mM glucose). Test compounds were transferred into the 96-well plates, followed by addition of the bacterial culture. Nitric oxide stress was induced by addition of 2 mM DPTA NONOate ((Z)-1-[N-(3-aminopropyl)-N-(3-ammoniopropyl)amino]diazen-1-ium-1,2-diolate, Cayman Chemical, Ann Arbor, MI, USA), dissolved in NaOH (final concentration 0.14 mM). Absorbance measurements (600 nm) were done with a Multiskan GO or Varioskan LUX plate reader (Thermo Fisher Scientific, Finland) at hourly intervals for 24 h. Between measurements, plates were incubated in a shaking incubator (500 rpm) at 37 °C.

[2] = tested on: E. coli BW25-113 (wild type); experiment: Antibacterial growth inhibition assay in MHB, wild type; type: cell-based; conditions: 24 h; for inhibition at 100 µM: Escherichia coli, read-out: Growth Inhibition (%)
Procedure: (§3) The potential of hit compounds to interfere with bacterial growth was evaluated in E. coli BW25-113 (wild type) and tolC-deficient strain E. coli JW5503 [34] (obtained from the NBRP-E. coli collection at the National Institute of Genetics, Mishima, Japan). The effect of the compounds on wild-type strain E. coli BW25-113 and the isogenic clpP-deficient E. coli JW0427-1 [34] (coli genetic stock center, New Haven, CT, USA) were measured in the presence of the efflux pump inhibitor Phe-Arg β-naphthylamide dihydrochloride (#P4157, Sigma-Aldrich, USA) at 25 μM. Single colonies of the bacterial strains from Mueller Hinton Agar culture were used to inoculate 5 mL of saline solution. The suspension was transferred into fresh, sterile Mueller Hinton broth (MHB) medium, resulting in a final concentration of 10^6 CFU/mL. Growth assays were carried out in 96-well, flat-bottom, sterile clear plates (#167008, Nunc, VWR, Radnor, PA, USA) and compounds were tested at 50 and 100 μM concentration (2% DMSO). Absorbance at 600 nm was measured using the Multiskan GO or Varioskan LUX plate reader (Thermo Fisher Scientific, Vantaa, Finland) for 24 h at hourly intervals. Between measurements, plates were incubated in a shaking incubator (500 rpm) at 37 °C.

E. coli JW0427 (ΔclpP) [3] = experiment: Growth delay under nitric oxide stress (DPTA NONOate) in M9 medium, clpP-deficient strain; type: cell-based; conditions: clpP-deficient E. coli, DPTA NONOate, compared with cells without compound
Procedure: as §2

bovine α-chymotrypsin = molecular target: T1, bovine α-chymotrypsin (Bos taurus, UniProt P00766); experiment: Serine protease selectivity assay with bovine α-chymotrypsin (Suc-LY-AMC); type: biochemical; conditions: 200 μM compound concentration
T1 construct: purchased Sigma-Aldrich C4129
Procedure: Compound selectivity was assessed using bovine α-chymotrypsin (#C4129, Sigma-Aldrich, St. Louis, MO, USA) at 200 µM. The assay was carried out as described above, except that 1 ng/μL of α-chymotrypsin and 100 μM of Suc-LY-AMC substrate were dissolved in a buffer containing 150 mM NaCl, 10 mM CaCl2, 50 mM Tris-HCl, and 0.05% Brij® 35.

E. coli ClpP [4] = molecular target: T2, E. coli ClpP (Escherichia coli, UniProt P0A6G7); experiment: Fluorescence-based E. coli ClpP proteolytic activity assay (Suc-LY-AMC), primary screen and dose-response; type: biochemical; conditions: for E. coli ClpP inhibition [%] in the primary screen: 200 µM
T2 construct: His-tag; made in house; host or cells: E. coli SG1146a
T2 sequence (P0A6G7 15-207): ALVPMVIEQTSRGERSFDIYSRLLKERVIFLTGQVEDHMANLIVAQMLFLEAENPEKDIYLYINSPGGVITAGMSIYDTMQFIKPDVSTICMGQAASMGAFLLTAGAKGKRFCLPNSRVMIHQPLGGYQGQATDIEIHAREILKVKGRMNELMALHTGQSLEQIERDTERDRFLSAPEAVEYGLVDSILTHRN
Procedure: Briefly, 25 ng/μL of E. coli ClpP dissolved in a buffer containing 100 mM NaCl, 100 mM 4-(2-hydroxyethyl)-1-piperazineethanesulfonic acid (HEPES) pH 7.5, and 0.05% Brij® 35 were transferred into each well. Test compound addition (final concentration 200 µM) was carried out using an Echo® 550 liquid handling system (Labcyte, Sunnyvale, CA, USA). […] Changes in fluorescence (excitation 350 nm, emission 435 nm) were monitored at 1 min intervals at 30 °C over 1 h using an Infinite M1000 microplate reader (Tecan).
The assay was carried out as described above with increasing concentrations of test compounds. Dose-response experiments were done at least 3 times independently, each in technical triplicates.
Calculation of Z prime (Z’) for HTS assay performance was done according to Zhang et al.. Plates were considered for further analyses if Z’ > 0.6 [26].

E. coli ClpP [5] = molecular target: T2, E. coli ClpP; experiment: Surface plasmon resonance binding to immobilized ClpP; conditions: 80 µM, injected over 7 min, 30 min dissociation
Procedure: E. coli ClpP (80 μg/mL) protein was immobilized, using amine coupling (SPR-AS-HCA-03, Bruker Daltonics Inc., Billerica, MA, USA), onto the surface of the sensor chip of a SIERRA SPR-16 instrument (Bruker Daltonics GmbH, Bremen, Germany). ClpP protein was dissolved in acetate at pH 4. The running buffer contained 150 mM NaCl, 10 mM Hepes, 3 mM EDTA, and 0.05% (v/v) Tween-20. The flow rate for protein immobilization was 10 μL/min. Binding experiments were carried out using running buffer with the addition of 0.8% (v/v) of DMSO and 80 µM test substance (flow rate of 20 μL/min for 7 min and up to 30 min of dissociation time). […] SPR data were analyzed using the Analyzer 3 software (Bruker Daltonics GmbH), which includes algorithms for subtracting reference signals and accounting for non-specific interactions between the solvent and the sensor chip surface.

E. coli JW5503 (ΔtolC) = experiment: Antibacterial growth inhibition assay in MHB, efflux pump-defective strain; type: cell-based; conditions: Escherichia coli, 24 h, read-out: Growth Inhibition (%)
Procedure: as §3

E. coli JW0427 (ΔclpP) [6] = experiment: Antibacterial growth inhibition assay in MHB, clpP-deficient strain; type: cell-based; conditions: Escherichia coli, 24 h, read-out: Growth Inhibition (%)
Procedure: as §3

[7] = A549 cells, read-out: Cytotoxicity A549 IC50
[8] = HTC-116 cells, read-out: Cytotoxicity HTC-116 IC50
[9] = MCF-7 cells, read-out: Cytotoxicity MCF-7 IC50
[10] = E. coli WT, without PAβN, 100 μM, 37 °C, MHB
[11] = read-out: E. coli ClpP inhibition [%] in the primary screen, primary screen, 200 µM
[12] = read-out: Inhibition (%) at 200 μM E. coli ClpP, 200 μM compound concentration

SMILES: O=c1oc(Cl)c(Cl)c2ccccc12 [3,4-DIC, 3,4-dichloroisocoumarin]
- IC50 at 48 h (in vitro; [7]): 44.7 µM
- IC50 at 48 h (in vitro; [8]): 45.1 µM
- IC50 at 48 h (in vitro; [9]): 9.06 µM
- Cytotoxicity HTC-116 Ratio (IC50 cytotoxicity/IC50 ClpP) (HTC-116 cells; HTC-116): 9.2
- Cytotoxicity A549 Ratio (IC50 cytotoxicity/IC50 ClpP) (A549 cells; A549): 9.12
- Cytotoxicity MCF-7 Ratio (IC50 cytotoxicity/IC50 ClpP) (MCF-7 cells; MCF-7): 1.85
- Bacterial growth in absence of NO• stress [1]: small growth delay
- Growth Inhibition (%) [2, 10]: did not show any intrinsic antimicrobial activities
- Growth delay in presence of nitric oxide stress (E. coli JW0427 (ΔclpP) [3]): did not show any significant effect
- Inhibition (%) at 200 μM α-Chymotrypsin (bovine α-chymotrypsin): completely inhibited
- inhibition at 200 µM (bovine α-chymotrypsin): 101%
- IC50 (E. coli ClpP [4]): 4.9 µM
- E. coli ClpP inhibition [%] in the primary screen (E. coli ClpP [4]): > 90%
- inhibition at 200 µM (E. coli ClpP [4]; [11]): 98.9%
- inhibition at 200 µM (E. coli ClpP [4]; [12]): 98.9%
- Covalent / irreversible binding to ClpP by SPR (E. coli ClpP [5]): covalent binding

SMILES: CO[C@@]1(NC(=O)CSCC#N)C(=O)N2C(C(=O)O)=C(CSc3nnnn3C)CS[C@@H]21 [Cefmetazole, cefmetazole]
- IC50 at 48 h (in vitro; [7]): 250 µM
- IC50 at 48 h (in vitro; [8]): 5430 µM
- IC50 at 48 h (in vitro; [9]): 74.1 µM
- Cytotoxicity HTC-116 Ratio (IC50 cytotoxicity/IC50 ClpP) (HTC-116 cells; HTC-116): 1597.06
- Cytotoxicity A549 Ratio (IC50 cytotoxicity/IC50 ClpP) (A549 cells; A549): 73.53
- inhibition at 100 µM [2, 10]: 100%
- inhibition at 100 µM (E. coli JW5503 (ΔtolC)): 100%
- inhibition at 100 µM (E. coli JW0427 (ΔclpP) [6]): 100%
- Inhibition (%) at 200 μM α-Chymotrypsin (bovine α-chymotrypsin): no inhibition
- inhibition at 200 µM (bovine α-chymotrypsin): 0%
- IC50 (E. coli ClpP [4]): 3.4 µM
- E. coli ClpP inhibition [%] in the primary screen (E. coli ClpP [4]): > 90%
- inhibition at 200 µM (E. coli ClpP [4]; [11]): 94.5%
- inhibition at 200 µM (E. coli ClpP [4]; [12]): 94.5%

SMILES: CC(C)C[C@H](NC(=O)[C@H](Cc1ccccc1)NC(=O)c1cnccn1)B(O)O [Bortezomib, bortezomib]
- Cytotoxicity HTC-116 Ratio (IC50 cytotoxicity/IC50 ClpP) (HTC-116 cells): 0.005
- Cytotoxicity A549 Ratio (IC50 cytotoxicity/IC50 ClpP) (A549 cells): 0.005
- Cytotoxicity MCF-7 Ratio (IC50 cytotoxicity/IC50 ClpP) (MCF-7 cells): 1
- Bacterial growth in absence of NO• stress [1]: did not show any effect
- inhibition at 100 µM [2]: 55%
- inhibition at 100 µM (E. coli JW0427 (ΔclpP) [6]): 100%
- Inhibition (%) at 200 μM α-Chymotrypsin (bovine α-chymotrypsin): completely inhibited
- inhibition at 200 µM (bovine α-chymotrypsin): 97.8%
- IC50 (E. coli ClpP [4]): 0.04 µM
- E. coli ClpP inhibition [%] in the primary screen (E. coli ClpP [4]): > 90%
- inhibition at 200 µM (E. coli ClpP [4]; [11]): 100%
- inhibition at 200 µM (E. coli ClpP [4]; [12]): 100%
- Covalent / irreversible binding to ClpP by SPR (E. coli ClpP [5]): covalent binding
- SPR signal (resonance units, RU) (E. coli ClpP [5]): low change of absolute resonance unit
